The record followed here is patent publication US9186346B2, “Methods for reducing the risk of an adverse teriflunomide and rosuvastatin interaction in multiple sclerosis patients” (SANOFI, priority 2013, dated 2015).

Series [1] can be described thus: Crossover interaction study: effect of repeated doses of teriflunomide on the pharmacokinetics of a single dose of rosuvastatin in healthy male subjects. The class given is in vivo, human. As to the method: A single-center, open-label, 1-sequence, 2-period, 2-treatment crossover study with a 5-day washout between periods was conducted in 15 healthy male subjects aged 18 to 45 to evaluate the effect of repeated doses of teriflunomide on the pharmacokinetics (PK) of a single dose of rosuvastatin 10 mg. All subjects received the following treatments during each period: • 1. Period 1: A single 10 mg dose of rosuvastatin was administered in fasted state followed by a 5-day washout (from Days 1 to 6). Day 6 corresponded to Day 1 of Period 2. • 2. Period 2: A loading dose of 70 mg teriflunomide was administered once a day for 4 days (Days 1 to 4), followed by 14 mg once a day for 8 days (Days 5 to 12) in fed conditions except for Day 12. A single dose of 10 mg rosuvastatin was co-administered with teriflunomide on Day 12 in fasted conditions.
The following PK parameters were calculated using noncompartmental methods from plasma rosuvastatin concentration obtained after single dose administration:
Rosuvastatin: Area under the plasma concentration versus time curve (AUC) from time zero to the real time corresponding to the last concentration above the lower limit of quantitation, tlast, (AUClast) and area under the plasma concentration versus time curve extrapolated to infinity (AUC).
Rosuvastatin: Maximum plasma concentration (Cmax) observed, time to reach maximum concentration (Tmax), tlast, and terminal half-life (t1/2z).
Rosuvastatin: Blood samples were collected at predose, 0.5, 1, 2, 3, 4, 5, 6, 8, 10, 12, 24 and 36 hours postdose on Day 1 of Period 1 and Day 12 of Period 2.
Rosuvastatin plasma concentrations were determined by a validated liquid chromatography couples with tandem mass spectrometry (LC-MS/MS) method, with a LLOQ (lower limit of quantification) of 50.1 pg/mL. Teriflunomide plasma concentrations were determined with a validated LC-MS/MS method with an LLOQ of 0.01 μg/mL.
Rosuvastatin PK parameters and teriflunomide Ctrough (trough plasma concentration) were summarized with descriptive statistics for each treatment.

In a further series the target is T1, OATP1B3 (Homo sapiens, UniProt Q9NPD5).
T1 sequence (Q9NPD5 1-702): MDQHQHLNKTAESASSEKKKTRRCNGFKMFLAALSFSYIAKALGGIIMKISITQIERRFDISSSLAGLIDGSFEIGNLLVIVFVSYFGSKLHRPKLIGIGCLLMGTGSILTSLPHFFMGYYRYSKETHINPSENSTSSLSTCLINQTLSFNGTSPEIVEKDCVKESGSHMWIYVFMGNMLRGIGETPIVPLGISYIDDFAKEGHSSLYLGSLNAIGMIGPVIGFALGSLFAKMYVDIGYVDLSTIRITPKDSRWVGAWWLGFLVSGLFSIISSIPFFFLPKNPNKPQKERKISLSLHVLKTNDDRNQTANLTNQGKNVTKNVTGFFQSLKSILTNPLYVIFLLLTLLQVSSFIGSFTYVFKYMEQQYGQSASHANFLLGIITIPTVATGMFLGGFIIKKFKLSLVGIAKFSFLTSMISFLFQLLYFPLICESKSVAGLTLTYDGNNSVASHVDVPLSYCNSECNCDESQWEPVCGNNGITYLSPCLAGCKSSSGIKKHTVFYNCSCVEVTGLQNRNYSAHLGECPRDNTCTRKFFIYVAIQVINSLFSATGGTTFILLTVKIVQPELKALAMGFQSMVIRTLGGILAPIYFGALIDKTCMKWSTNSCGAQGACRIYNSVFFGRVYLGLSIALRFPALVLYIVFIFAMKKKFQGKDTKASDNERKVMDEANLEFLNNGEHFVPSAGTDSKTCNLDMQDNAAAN
The series is described as follows: In vitro inhibition of OATP1B3. The source says: (§1) The use of teriflunomide for treating multiple sclerosis is described in U.S. Pat. No. 6,794,410.

Another series addresses T2, OAT3 (Homo sapiens, UniProt Q8TCC7).
T2 sequence (Q8TCC7 1-542): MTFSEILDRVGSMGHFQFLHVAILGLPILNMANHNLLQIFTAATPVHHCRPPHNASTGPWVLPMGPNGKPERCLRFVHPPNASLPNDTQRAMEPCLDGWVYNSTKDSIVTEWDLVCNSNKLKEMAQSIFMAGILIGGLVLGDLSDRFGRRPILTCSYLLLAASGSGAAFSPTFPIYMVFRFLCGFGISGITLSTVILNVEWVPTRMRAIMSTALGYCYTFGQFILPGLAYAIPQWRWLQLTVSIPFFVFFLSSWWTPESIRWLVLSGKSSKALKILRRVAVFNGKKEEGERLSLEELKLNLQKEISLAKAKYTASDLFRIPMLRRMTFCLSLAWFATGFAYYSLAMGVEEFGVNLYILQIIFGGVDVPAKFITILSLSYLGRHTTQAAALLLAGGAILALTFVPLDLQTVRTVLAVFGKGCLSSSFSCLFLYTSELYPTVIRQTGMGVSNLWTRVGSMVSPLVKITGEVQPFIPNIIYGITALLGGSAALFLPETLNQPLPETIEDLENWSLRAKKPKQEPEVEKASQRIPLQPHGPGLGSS
Nature of the series: In vitro inhibition of OAT3.
Excerpt: as §1

The next series has as its target T3, BCRP (Homo sapiens, UniProt Q9UNQ0).
T3 sequence (Q9UNQ0 1-655): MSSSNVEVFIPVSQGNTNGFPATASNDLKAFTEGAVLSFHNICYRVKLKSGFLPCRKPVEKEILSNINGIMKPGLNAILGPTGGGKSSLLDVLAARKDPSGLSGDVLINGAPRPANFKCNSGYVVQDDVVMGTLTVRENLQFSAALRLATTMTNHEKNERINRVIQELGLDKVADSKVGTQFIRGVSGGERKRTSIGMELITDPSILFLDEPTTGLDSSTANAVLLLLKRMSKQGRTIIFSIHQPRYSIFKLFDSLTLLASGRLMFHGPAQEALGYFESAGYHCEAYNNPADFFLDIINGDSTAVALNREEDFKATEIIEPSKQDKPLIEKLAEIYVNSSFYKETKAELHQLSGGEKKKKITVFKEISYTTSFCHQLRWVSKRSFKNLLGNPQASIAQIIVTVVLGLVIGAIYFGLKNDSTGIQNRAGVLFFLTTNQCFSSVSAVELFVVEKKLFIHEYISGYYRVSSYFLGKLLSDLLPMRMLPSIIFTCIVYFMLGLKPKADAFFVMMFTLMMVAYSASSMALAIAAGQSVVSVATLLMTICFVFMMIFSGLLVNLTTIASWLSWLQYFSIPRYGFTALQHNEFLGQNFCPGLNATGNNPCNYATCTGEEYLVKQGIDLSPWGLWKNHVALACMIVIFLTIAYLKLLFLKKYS
The series is described as follows: In vitro inhibition of BCRP.
Excerpt: as §1

Another series deals with T4, human OATP1B1 (Homo sapiens, UniProt Q9Y6L6).
T4 sequence (Q9Y6L6 1-691): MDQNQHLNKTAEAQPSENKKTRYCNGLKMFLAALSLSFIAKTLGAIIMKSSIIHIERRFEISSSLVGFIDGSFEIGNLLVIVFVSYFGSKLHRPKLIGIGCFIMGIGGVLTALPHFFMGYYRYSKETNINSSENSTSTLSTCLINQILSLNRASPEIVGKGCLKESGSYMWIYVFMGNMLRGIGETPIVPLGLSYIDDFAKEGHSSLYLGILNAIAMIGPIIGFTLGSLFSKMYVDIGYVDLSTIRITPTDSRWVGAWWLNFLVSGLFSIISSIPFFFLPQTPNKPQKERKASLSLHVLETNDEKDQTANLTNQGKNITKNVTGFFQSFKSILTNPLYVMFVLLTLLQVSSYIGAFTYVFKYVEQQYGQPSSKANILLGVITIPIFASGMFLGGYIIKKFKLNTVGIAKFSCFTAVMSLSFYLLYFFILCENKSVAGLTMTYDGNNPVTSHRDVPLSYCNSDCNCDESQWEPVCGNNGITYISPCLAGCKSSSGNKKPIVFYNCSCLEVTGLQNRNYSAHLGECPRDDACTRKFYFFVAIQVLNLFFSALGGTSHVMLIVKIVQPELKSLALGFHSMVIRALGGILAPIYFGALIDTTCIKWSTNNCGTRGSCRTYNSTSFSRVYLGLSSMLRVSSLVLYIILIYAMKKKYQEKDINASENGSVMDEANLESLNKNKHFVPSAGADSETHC
The series is described as follows: In vitro inhibition of human OATP1B1.
Excerpt: as §1

The mark [2] stands for this setting: following teriflunomide 70 mg QD for 4 days and 14 mg QD for 8 days.

Each structure is given as a SMILES string.

With `CC(C)c1nc(N(C)S(C)(=O)=O)nc(-c2ccc(F)cc2)c1/C=C/[C@@H](O)C[C@@H](O)CC(=O)O` [Rosuvastatin], in series [1] (setting [2]), the “Increase in mean rosuvastatin AUC” value turned out to be 2.51 fold and the “Increase in mean rosuvastatin Cmax” value is 2.65 fold. In addition, in series [1] (male, human, plasma, rosuvastatin 10 mg alone, mean ± SD, N=15, read-out: Rosuvastatin AUClast), the AUC(0-t) turned out to be 31.5 ± 16.4 ng·h/mL. The Tmax in series [1] (male, human, plasma, rosuvastatin 10 mg alone, median (min-max), N=15) is 3 h. The molecule also gave a Cmax in series [1] (male, human, rosuvastatin 10 mg single dose alone, fasted, Day 1 Period 1, plasma, mean ± SD, N=15) of 3.65 ± 1.78 ng/mL. Besides, the “Rosuvastatin t1/2z” value in series [1] (rosuvastatin 10 mg alone, mean ± SD, N=15) was 11.1 ± 2.99 h.

In the case of `C/C(O)=C(\C#N)C(=O)Nc1ccc(C(F)(F)F)cc1` [Teriflunomide, (Z)-2-cyano-3-hydroxy-but-2-enoic acid-(4′-trifluoromethylphenyI)-amide], the IC50 (as a rule, the concentration needed to halve the response being measured) against OATP1B3 was 7.04 µM; on OAT3 it was 1.3 µM; on BCRP it was 0.15 µM; against human OATP1B1 it was 7.1 µM.
